# Test results from ChEMBL document CHEMBL1687691, “From taxuspine x to structurally simplified taxanes with remarkable p-glycoprotein inhibitory activity” (ACS Med Chem Lett, 2010).
# pIC50: −log10 of the molar value.
# Assays:
# [1] = molecular target: T1, ATP-dependent translocase ABCB1 (Homo sapiens, UniProt P08183); assay: Inhibition of human MDR1 expressed in mouse L5178 cells assessed as increase in intracellular accumulation of rhodamine 123 AT 0.1 mM by FACSCalibur flow cytometry; format: cell-based; settings: l5178, 100 µM
# T1 sequence (P08183 whole entry): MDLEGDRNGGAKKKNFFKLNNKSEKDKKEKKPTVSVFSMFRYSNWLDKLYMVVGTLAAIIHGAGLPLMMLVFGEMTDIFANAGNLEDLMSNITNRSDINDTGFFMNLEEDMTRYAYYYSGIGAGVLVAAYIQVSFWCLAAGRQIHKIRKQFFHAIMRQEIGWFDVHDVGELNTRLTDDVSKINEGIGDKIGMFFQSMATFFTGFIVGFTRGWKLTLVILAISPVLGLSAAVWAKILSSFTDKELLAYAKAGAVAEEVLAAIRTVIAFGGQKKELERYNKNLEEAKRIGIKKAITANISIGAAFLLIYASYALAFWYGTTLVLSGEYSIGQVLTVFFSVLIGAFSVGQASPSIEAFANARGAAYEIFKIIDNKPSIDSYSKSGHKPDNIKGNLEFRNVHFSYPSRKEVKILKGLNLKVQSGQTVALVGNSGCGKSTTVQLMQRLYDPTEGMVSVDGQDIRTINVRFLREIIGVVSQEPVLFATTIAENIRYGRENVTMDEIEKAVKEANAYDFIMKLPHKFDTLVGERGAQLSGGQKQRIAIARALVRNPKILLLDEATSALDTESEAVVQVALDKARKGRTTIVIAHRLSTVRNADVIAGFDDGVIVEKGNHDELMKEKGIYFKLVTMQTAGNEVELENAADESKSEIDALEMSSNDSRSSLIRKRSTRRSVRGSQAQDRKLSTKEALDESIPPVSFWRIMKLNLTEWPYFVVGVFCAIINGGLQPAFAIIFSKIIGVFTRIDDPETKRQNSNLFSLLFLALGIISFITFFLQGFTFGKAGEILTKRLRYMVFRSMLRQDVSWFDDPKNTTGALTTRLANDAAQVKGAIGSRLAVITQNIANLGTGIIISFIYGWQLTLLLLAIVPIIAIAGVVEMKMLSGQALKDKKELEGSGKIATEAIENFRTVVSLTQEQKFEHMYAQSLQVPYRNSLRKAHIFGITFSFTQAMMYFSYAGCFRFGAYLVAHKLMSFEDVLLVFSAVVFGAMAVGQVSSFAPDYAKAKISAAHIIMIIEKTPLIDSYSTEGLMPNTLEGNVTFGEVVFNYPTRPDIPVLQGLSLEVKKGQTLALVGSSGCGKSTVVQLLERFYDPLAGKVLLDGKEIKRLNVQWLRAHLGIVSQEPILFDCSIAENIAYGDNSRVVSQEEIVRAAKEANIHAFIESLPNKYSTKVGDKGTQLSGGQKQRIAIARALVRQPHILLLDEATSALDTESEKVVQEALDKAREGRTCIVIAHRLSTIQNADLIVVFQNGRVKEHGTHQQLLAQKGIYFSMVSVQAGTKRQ
# [2] = molecular target: T1, ATP-dependent translocase ABCB1; assay: Inhibition of human MDR1 expressed in mouse L5178 cells assessed as increase in intracellular accumulation of rhodamine 123 by FACSCalibur flow cytometry; format: cell-based
Alpha max [1],pIC50 [2],SMILES
0.37,–,COCCOCO[C@@H]1/C=C\COC(=O)/C=C/[C@@H](OC)[C@@H]2CCC(C)=C1C2(C)C
1,5.14,COCCOCO[C@@H]1/C=C\COC(=O)/C=C/[C@@H](OC)[C@@H]2C[C@@H](OC(=O)c3ccccc3)C(C)=C1C2(C)C
1,4.62,COCCOCO[C@@H]1/C=C\C(OC(C)=O)C(OC(C)=O)/C=C/[C@@H](OC)[C@@H]2CCC(C)=C1C2(C)C (stereo not given in full)
